Tested on: 2nd sensory neuron in the trigeminal nucleus caudalis (TNC)
Assay: rat model of migraine: sensitization induced by inflammatory soup applied to the dura, monitored by electrophysiology in the TNC
Type: in vivo
Conditions: eletriptan given 3 hours after inflammatory soup on the dura; observed as late as 5.5 hours after sensitization

CN1CCC[C@@H]1Cc1c[nH]c2ccc(CCS(=O)(=O)c3ccccc3)cc12 [eletriptan]
reversal of sensitization of responses to sensory stimuli (brush and pin): did not reverse the sensitization

— patent US20070191462A1, “Combination of A 5-HT(1) Receptor Agonist and an Alpha-2-Delta Ligand for the Treatment of Migraine” (Pfizer Limited, priority 2004, published 2007)
